The values below come from PMC12655185 (Pharmaceuticals, 2025).

Series [1] is described as follows: Stability in human serum (radio-HPLC, LC-MS). The following applies: for remaining at 24 h: read-out: radioligand intact after 24 h in human serum. It counts as in vitro ADME. As for the experimental part: For human serum stability investigation, 60 μL of the ^67Ga labeling mixture was mixed with 540 μL human serum and incubated at 37 °C. Aliquots of 25 μL were taken after 1, 2, 4 and 24 h. The aliquots were mixed with 75 μL of a mixture called “Supersol” (20% v/v EtOH, 0.5% Triton X-100, 5 mM EDTA, 0.5 mM o-phenantroline, and 0.1% saponine in water) and put on ice for 5 min. Subsequently, the mixtures were centrifuged at 16,100 rcf, 4 °C for 5 min. The supernatant was analyzed by analytical radio-HPLC. Serum half-lives were determined by non-linear regression according to one-phase decay. To determine the stability in labeling buffer, the labeling mixture was left at ambient temperature for 4 h. Subsequently, an aliquot of 5 μL was mixed with 45 μL of Supersol and analyzed with analytical radio-HPLC.
Analytical radio-HPLC was performed on a modular unit consisting of an operating unit (smartline manager 500, Knauer, Berlin, Germany), a pump unit (smartline pump 1000, Knauer, Berlin, Germany), a photo diode array detector (smartline PDA 2800, Knauer, Berlin, Germany) and a γ-detector (Ramona Star, Raytest, Lüttich, Belgium). The system was operated by the software Chromgate 2.8. Chromatography was conducted on a C18 column (Eurospher 100-5, 250 × 4 mm, Knauer, Berlin, Germany) at a flow rate of 1 mL/min.

A short description of series [2]: LogD7.4 determination (octanol/PBS). Format: physicochemical. The following applies: octanol / PBS pH 7.4. The method, then:
The obtained solutions from ^67Ga labeling were diluted with water in a 1:1 ratio and brought to pH 7 using aqueous NaOH (1 M). For LogD7.4 determination, 10 μL of neutralized labeling solution was diluted with 290 μL 1× PBS (pH 7.4) and 300 μL 1-Octanol (both pre-saturated by each other). The mixture was vortexed vigorously for 30 s and subsequently centrifuged for 5 min at 16,100 rcf. Defined volumes of each layer (10 μL for PBS, 200 μL for Octanol) were taken and analyzed for their radioactivity (ISOMED 100, Nuvia, Frankfurt, Germany). The partition coefficient LogD7.4 was determined from the decadic logarithm of the fraction of the radioactivity content of the aqueous and octanol layers.

Another series can be described thus: human serum. The following applies: up to 24 h.

Where a SMILES comes first, the peptide text is derived from it. [ ]: non-standard residue; d: D form. The star is where a group is joined. X1 = O=C(O)CN1CCN(CC(=O)O)CCN([C@H](CCC(=O)*)C(=O)O)CC1; Sar = CNCC(=O)O

Turning to `CC[C@H](C)[C@H](NC(=O)[C@H](CC(N)=O)NC(=O)[C@@H]1CCCN1C(=O)[C@@H]1CCCN1C(=O)[C@H](CCCNC(=N)N)NC(=O)[C@H](CC(=O)O)NC(=O)[C@H](CC(N)=O)NC(=O)[C@@H](N)CO)C(=O)N[C@@H](CC(C)C)C(=O)N[C@@H](CCC(N)=O)C(=O)N[C@@H](CCCCN)C(=O)N[C@@H](CCCNC(=N)N)C(=O)N(C)CC(=O)N(C)CC(=O)N(C)CC(=O)N[C@@H](CCCCNC(=O)CC[C@H](C(=O)O)N1CCN(CC(=O)O)CCN(CC(=O)O)CC1)C(N)=O` [TJ12P2(K^11)-X3K-[^67Ga]Ga-NODA-GA-CONH2, metal not drawn] (H-SNDRPPNILQKR[Sar][Sar][Sar]K(X1)-NH2), the remaining at 24 h in series [1] (37 °C) worked out at 89%. Also, the logD – broadly, the decadic logarithm of the distribution of all forms, ionised or not, between an organic phase and buffer at a given pH – in series [2] is -4.79 ± 0.03.

Take `CC[C@H](C)[C@H](NC(=O)[C@H](CC(N)=O)NC(=O)[C@@H]1CCCN1C(=O)[C@@H]1CCCN1C(=O)[C@H](CCCNC(=N)N)NC(=O)[C@H](CC(=O)O)NC(=O)[C@H](CC(N)=O)NC(=O)[C@@H](N)CO)C(=O)N[C@@H](CC(C)C)C(=O)N[C@@H](CCC(N)=O)C(=O)N[C@@H](CCC(N)=O)C(=O)N[C@@H](CCCNC(=N)N)C(=O)N(C)CC(=O)N(C)CC(=O)N(C)CC(=O)N[C@@H](CCCCNC(=O)CC[C@H](C(=O)O)N1CCN(CC(=O)O)CCN(CC(=O)O)CC1)C(N)=O` [TJ12P2(Q^11)-X3K-[^67Ga]Ga-NODA-GA-CONH2, metal not drawn] (H-SNDRPPNILQQR[Sar][Sar][Sar]K(X1)-NH2): the remaining at 24 h in series [1] (37 °C) came out at 95%. The logD in series [2] was -4.61 ± 0.05.

Take `CC[C@H](C)[C@H](NC(=O)[C@H](CC(N)=O)NC(=O)[C@@H]1CCCN1C(=O)[C@@H]1CCCN1C(=O)[C@H](CCCNC(=N)N)NC(=O)[C@H](CC(=O)O)NC(=O)[C@H](CC(N)=O)NC(=O)[C@H](CO)NC(=O)CC[C@H](C(=O)O)N1CCN(CC(=O)O)CCN(CC(=O)O)CC1)C(=O)N[C@@H](CC(C)C)C(=O)N[C@@H](CCC(N)=O)C(=O)N[C@@H](CCCCN)C(=O)N[C@@H](CCCNC(=N)N)C(=O)O` [[^67Ga]Ga-NODA-GA-TJ12P2(K^11), metal not drawn] (X1-SNDRPPNILQKR-OH): the remaining at 1 h in series [1] (37 °C, 1 h, read-out: radioligand intact after 1 h in human serum) came to 9.3%. Further, the half-life (usually the time needed for the level to fall by half in the phase considered) in series [1] (human, serum, 37 °C, one-phase decay) came to 17.4 min. Besides, in series [1] (radio-HPLC or LC-MS after 24 h), the “degradation product in human serum” value is “formation of a single metabolite”. Besides, in series [2], the logD was -4.78 ± 0.05.

Consider `CC[C@H](C)[C@H](NC(=O)[C@H](CC(N)=O)NC(=O)[C@@H]1CCCN1C(=O)[C@@H]1CCCN1C(=O)[C@H](CCCNC(=N)N)NC(=O)[C@H](CC(=O)O)NC(=O)[C@H](CC(N)=O)NC(=O)[C@H](CO)NC(=O)CC[C@H](C(=O)O)N1CCN(CC(=O)O)CCN(CC(=O)O)CC1)C(=O)N[C@@H](CC(C)C)C(=O)N[C@@H](CCC(N)=O)C(=O)N[C@@H](CCC(N)=O)C(=O)N[C@@H](CCCNC(=N)N)C(=O)O` [[^67Ga]Ga-NODA-GA-TJ12P2(Q^11), metal not drawn] (X1-SNDRPPNILQQR-OH), for which, in series [1] (37 °C), the remaining at 24 h stood at 72%. Moreover, the logD in series [2] was -4.79 ± 0.03.

In the series “human serum” (37 °C), SNDRPPNILQQRXXXK(NODA-GA) returned a not cleaved of 95% still intact after 24 h.

Regarding SulfoCy3-SNDRPPNILQKR, in “human serum”, the cleaved bond entry is recorded as “Lys11-arginine”.
